# Reference: ChEMBL document CHEMBL4390652, “Design, biological evaluation and X-ray crystallography of nanomolar multifunctional ligands targeting simultaneously acetylcholinesterase and glycogen synthase kinase-3” (Eur J Med Chem, 2019)
# Tests used:
# [1] = target: Angiopoietin-1 receptor (Homo sapiens) (UniProt Q02763); assay: Binding affinity to wild-type human partial length TIE2 (N804 to T1112 residues) expressed in bacterial expression system assessed as residual binding level at 10 uM by Kinomescan method relative to control
# [2] = target: Serine/threonine-protein kinase Nek10 (Homo sapiens) (UniProt Q6ZWH5); assay: Binding affinity to wild-type human partial length NEK10 (L488 to R809 residues) expressed in mammalian expression system assessed as residual binding level at 10 uM by Kinomescan method relative to control
# [3] = tested on: Epidermal growth factor receptor (Homo sapiens), P00533 [T790M]; assay: Binding affinity to human partial length EGFR T790M mutant (R669 to G1022 residues) expressed in mammalian expression system assessed as residual binding level at 10 uM by Kinomescan method relative to control
# [4] = target: Serine/threonine-protein kinase tousled-like 1 (Homo sapiens) (UniProt Q9UKI8); assay: Binding affinity to wild-type human partial length TLK1 (K447 to A754 residues) expressed in bacterial expression system assessed as residual binding level at 10 uM by Kinomescan method relative to control
# [5] = target: Ephrin type-A receptor 6 (Homo sapiens) (UniProt Q9UF33); assay: Binding affinity to wild-type human partial length EPHA6 (Y700 to E1046 residues) expressed in bacterial expression system assessed as residual binding level at 10 uM by Kinomescan method relative to control
# [6] = tested on: Tyrosine-protein kinase ABL1 (Homo sapiens), P00519 [H396P]; assay: Binding affinity to human phosphorylated ABL1 H396P mutant (S229 to K512 residues) expressed in mammalian expression system assessed as residual binding level at 10 uM by Kinomescan method relative to control
# [7] = target: Vascular endothelial growth factor receptor 1 (Homo sapiens) (UniProt P17948); assay: Binding affinity to wild-type human partial length FLT1 (R781 to F1239 residues) expressed in bacterial expression system assessed as residual binding level at 10 uM by Kinomescan method relative to control
# [8] = tested on: Phosphatidylinositol 4,5-bisphosphate 3-kinase catalytic subunit alpha isoform (Homo sapiens), P42336 [E545K]; assay: Binding affinity to human partial length PIK3CA E545K mutant (R108 to N1068 residues) expressed in mammalian expression system assessed as residual binding level at 10 uM by Kinomescan method relative to control
# [9] = target: Serine/threonine-protein kinase Sgk3 (Homo sapiens) (UniProt Q96BR1); assay: Binding affinity to wild-type human partial length SGK3 (M119 to L496 residues) expressed in mammalian expression system assessed as residual binding level at 10 uM by Kinomescan method relative to control
# [10] = target: Cyclin-G-associated kinase (Homo sapiens) (UniProt O14976); assay: Binding affinity to wild-type human partial length GAK (G13 to Y338 residues) expressed in bacterial expression system assessed as residual binding level at 10 uM by Kinomescan method relative to control
# [11] = target: Serine/threonine-protein kinase OSR1 (Homo sapiens) (UniProt O95747); assay: Binding affinity to wild-type human full length OSR1 (M1 to S527 residues) expressed in mammalian expression system assessed as residual binding level at 10 uM by Kinomescan method relative to control
# [12] = target: Membrane-associated tyrosine- and threonine-specific cdc2-inhibitory kinase (Homo sapiens) (UniProt Q99640); assay: Binding affinity to wild-type human partial length PKMYT1 (A88 to G366 residues) expressed in bacterial expression system assessed as residual binding level at 10 uM by Kinomescan method relative to control
# [13] = target: Cyclin-dependent kinase 4 (Homo sapiens) (UniProt P11802); assay: Binding affinity to wild-type human full length CDK4 (M1 to E303 residues) expressed in mammalian expression system assessed as residual binding level at 10 uM by Kinomescan method relative to control
# [14] = target: Mitogen-activated protein kinase kinase kinase 19 (Homo sapiens) (UniProt Q56UN5); assay: Binding affinity to wild-type human partial length YSK4 (T1019 to H1328 residues) expressed in mammalian expression system assessed as residual binding level at 10 uM by Kinomescan method relative to control
# [15] = target: Mitogen-activated protein kinase kinase kinase kinase 2 (Homo sapiens) (UniProt Q12851); assay: Binding affinity to wild-type human partial length MAP4K2 (M1 to G318 residues) expressed in mammalian expression system assessed as residual binding level at 10 uM by Kinomescan method relative to control
# [16] = target: Mitogen-activated protein kinase 11 (Homo sapiens) (UniProt Q15759); assay: Binding affinity to wild-type human full length p38-beta (M1 to Q364 residues) expressed in bacterial expression system assessed as residual binding level at 10 uM by Kinomescan method relative to control
# [17] = target: Cyclin-dependent kinase 19 (Homo sapiens) (UniProt Q9BWU1); assay: Binding affinity to wild-type human partial length CDK11 (M1 to N360 residues) expressed in bacterial expression system assessed as residual binding level at 10 uM by Kinomescan method relative to control
# [18] = target: Tyrosine-protein kinase Mer (Homo sapiens) (UniProt Q12866); assay: Binding affinity to wild-type human partial length MERTK (R557 to L884 residues) expressed in bacterial expression system assessed as residual binding level at 10 uM by Kinomescan method relative to control
# [19] = target: AP2-associated protein kinase 1 (Homo sapiens) (UniProt Q2M2I8); assay: Binding affinity to human wild-type AAK1 (G25 to L333 residues) expressed in bacterial expression system assessed as residual binding level at 10 uM by Kinomescan method relative to control
# [20] = target: Ephrin type-B receptor 4 (Homo sapiens) (UniProt P54760); assay: Binding affinity to wild-type human partial length EPHB4 (H585 to G892 residues) expressed in bacterial expression system assessed as residual binding level at 10 uM by Kinomescan method relative to control
# [21] = target: Serine/threonine-protein kinase RIO3 (Homo sapiens) (UniProt O14730); assay: Binding affinity to wild-type human full length RIOK3 (M1 to E519 residues) expressed in bacterial expression system assessed as residual binding level at 10 uM by Kinomescan method relative to control
# [22] = target: Myosin light chain kinase family member 4 (Homo sapiens) (UniProt Q86YV6); assay: Binding affinity to wild-type human partial length MYLK4 (V79 to S380 residues) expressed in bacterial expression system assessed as residual binding level at 10 uM by Kinomescan method relative to control
# [23] = target: Myosin-IIIb (Homo sapiens) (UniProt Q8WXR4); assay: Binding affinity to wild-type human partial length MYO3B (M1 to D357 residues) expressed in bacterial expression system assessed as residual binding level at 10 uM by Kinomescan method relative to control
# [24] = target: Activin receptor type-1B (Homo sapiens) (UniProt P36896); assay: Binding affinity to wild-type human ACVR1B (S187 to I505 residues) expressed in bacterial expression system assessed as residual binding level at 10 uM by Kinomescan method relative to control
# Chain of Ephrin type-A receptor 6 (Homo sapiens) (Q9UF33 whole entry, the tested form may be a part): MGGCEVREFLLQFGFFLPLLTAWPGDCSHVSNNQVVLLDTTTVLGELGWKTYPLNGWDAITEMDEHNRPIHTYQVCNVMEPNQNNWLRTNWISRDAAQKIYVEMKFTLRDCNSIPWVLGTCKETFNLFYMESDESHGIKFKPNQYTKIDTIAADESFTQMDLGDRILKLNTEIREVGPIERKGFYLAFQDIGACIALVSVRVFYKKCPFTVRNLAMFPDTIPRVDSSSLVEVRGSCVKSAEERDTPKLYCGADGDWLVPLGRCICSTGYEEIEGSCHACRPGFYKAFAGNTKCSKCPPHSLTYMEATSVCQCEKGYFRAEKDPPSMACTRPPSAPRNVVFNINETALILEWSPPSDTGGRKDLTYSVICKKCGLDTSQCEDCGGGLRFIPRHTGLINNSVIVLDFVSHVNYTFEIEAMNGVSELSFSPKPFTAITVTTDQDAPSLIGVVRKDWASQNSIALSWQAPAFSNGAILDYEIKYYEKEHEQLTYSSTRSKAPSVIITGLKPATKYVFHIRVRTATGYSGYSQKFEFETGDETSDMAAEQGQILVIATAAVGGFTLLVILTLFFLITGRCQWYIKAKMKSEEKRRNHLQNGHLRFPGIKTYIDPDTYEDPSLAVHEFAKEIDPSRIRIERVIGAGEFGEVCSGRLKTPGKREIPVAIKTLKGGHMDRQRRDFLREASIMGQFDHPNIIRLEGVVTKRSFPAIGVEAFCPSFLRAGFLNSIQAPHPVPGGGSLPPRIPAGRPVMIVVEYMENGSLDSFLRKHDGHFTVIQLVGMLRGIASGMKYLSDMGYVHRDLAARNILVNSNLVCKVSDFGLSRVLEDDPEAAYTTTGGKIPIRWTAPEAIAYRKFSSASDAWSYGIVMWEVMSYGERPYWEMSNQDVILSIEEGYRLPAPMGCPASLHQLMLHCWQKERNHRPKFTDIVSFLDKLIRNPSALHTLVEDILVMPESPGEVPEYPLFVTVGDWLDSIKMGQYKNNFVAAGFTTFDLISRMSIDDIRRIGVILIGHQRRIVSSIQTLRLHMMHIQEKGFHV
# Chain of Serine/threonine-protein kinase Sgk3 (Homo sapiens) (Q96BR1 whole entry, the tested form may be a part): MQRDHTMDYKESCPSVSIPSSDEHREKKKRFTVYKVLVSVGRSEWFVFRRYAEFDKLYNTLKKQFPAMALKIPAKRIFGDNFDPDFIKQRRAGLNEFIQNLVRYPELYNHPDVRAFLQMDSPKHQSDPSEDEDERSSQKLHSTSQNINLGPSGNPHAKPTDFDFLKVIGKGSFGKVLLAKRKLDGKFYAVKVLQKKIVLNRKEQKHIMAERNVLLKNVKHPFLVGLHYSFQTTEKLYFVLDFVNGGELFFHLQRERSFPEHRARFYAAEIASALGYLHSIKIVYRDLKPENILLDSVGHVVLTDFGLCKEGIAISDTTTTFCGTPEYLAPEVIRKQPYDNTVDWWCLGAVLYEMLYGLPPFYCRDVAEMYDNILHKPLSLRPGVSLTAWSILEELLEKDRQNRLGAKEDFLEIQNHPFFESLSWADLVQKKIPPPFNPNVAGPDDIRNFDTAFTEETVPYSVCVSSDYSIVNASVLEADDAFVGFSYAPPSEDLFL
# Chain of Cyclin-dependent kinase 19 (Homo sapiens) (Q9BWU1 whole entry, the tested form may be a part): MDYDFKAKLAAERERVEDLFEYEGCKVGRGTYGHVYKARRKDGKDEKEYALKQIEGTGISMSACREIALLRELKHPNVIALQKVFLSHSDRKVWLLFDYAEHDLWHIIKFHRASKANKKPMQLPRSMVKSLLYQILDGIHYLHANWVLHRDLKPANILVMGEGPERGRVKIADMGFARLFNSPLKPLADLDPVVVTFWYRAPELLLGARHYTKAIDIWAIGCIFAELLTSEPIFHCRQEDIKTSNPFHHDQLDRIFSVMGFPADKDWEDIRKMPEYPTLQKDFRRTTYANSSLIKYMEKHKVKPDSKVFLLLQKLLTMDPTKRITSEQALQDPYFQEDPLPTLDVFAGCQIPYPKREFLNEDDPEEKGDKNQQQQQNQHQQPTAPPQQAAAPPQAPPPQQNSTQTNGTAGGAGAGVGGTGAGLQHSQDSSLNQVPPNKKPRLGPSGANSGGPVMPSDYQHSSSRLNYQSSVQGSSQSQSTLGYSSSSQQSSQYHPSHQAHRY
# Chain of Myosin light chain kinase family member 4 (Homo sapiens) (Q86YV6 whole entry, the tested form may be a part): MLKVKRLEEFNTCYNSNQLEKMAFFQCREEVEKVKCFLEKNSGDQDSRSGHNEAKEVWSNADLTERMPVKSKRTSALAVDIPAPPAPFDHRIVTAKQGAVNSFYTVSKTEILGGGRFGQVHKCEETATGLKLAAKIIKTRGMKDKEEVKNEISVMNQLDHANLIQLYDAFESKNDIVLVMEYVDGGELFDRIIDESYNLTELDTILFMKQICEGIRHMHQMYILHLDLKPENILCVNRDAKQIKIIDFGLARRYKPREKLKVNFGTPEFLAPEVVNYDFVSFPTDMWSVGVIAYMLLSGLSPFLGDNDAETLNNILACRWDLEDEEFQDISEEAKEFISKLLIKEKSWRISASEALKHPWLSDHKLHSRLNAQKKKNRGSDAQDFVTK
# Chain of Cyclin-G-associated kinase (Homo sapiens) (O14976 whole entry, the tested form may be a part): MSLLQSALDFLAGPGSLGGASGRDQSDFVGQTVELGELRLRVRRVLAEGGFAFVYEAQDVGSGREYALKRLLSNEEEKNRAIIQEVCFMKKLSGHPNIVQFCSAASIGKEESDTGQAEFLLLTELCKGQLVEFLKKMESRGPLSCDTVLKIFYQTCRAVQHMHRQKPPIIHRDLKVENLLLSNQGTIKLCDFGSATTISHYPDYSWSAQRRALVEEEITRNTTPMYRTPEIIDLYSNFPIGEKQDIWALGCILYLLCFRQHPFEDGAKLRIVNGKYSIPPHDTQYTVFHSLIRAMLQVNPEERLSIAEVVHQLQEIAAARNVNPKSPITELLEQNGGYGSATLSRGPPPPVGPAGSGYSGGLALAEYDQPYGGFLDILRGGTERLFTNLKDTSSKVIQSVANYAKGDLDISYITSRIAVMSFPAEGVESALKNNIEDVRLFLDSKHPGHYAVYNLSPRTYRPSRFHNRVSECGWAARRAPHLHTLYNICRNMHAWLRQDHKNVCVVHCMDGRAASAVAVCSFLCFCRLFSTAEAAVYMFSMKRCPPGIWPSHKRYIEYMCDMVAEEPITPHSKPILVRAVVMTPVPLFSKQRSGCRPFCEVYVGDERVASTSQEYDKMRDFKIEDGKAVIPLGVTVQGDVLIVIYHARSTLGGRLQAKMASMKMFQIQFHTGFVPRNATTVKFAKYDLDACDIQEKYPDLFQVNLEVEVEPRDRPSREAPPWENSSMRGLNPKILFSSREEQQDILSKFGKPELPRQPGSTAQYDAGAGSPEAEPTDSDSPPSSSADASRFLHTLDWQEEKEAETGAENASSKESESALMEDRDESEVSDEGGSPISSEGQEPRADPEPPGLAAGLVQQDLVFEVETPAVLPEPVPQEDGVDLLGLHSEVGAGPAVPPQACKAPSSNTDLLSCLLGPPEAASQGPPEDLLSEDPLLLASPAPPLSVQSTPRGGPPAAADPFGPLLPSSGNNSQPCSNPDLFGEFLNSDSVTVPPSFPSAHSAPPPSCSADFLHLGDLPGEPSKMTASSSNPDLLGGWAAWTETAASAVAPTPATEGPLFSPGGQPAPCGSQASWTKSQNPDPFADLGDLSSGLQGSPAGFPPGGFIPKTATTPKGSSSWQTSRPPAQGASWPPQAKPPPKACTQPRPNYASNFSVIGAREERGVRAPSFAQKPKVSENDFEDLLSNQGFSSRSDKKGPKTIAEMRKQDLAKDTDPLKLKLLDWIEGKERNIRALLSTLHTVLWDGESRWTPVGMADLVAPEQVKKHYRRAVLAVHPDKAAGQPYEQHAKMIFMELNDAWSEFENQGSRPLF
# Chain of AP2-associated protein kinase 1 (Homo sapiens) (Q2M2I8 whole entry, looked up, the tested form may be a part): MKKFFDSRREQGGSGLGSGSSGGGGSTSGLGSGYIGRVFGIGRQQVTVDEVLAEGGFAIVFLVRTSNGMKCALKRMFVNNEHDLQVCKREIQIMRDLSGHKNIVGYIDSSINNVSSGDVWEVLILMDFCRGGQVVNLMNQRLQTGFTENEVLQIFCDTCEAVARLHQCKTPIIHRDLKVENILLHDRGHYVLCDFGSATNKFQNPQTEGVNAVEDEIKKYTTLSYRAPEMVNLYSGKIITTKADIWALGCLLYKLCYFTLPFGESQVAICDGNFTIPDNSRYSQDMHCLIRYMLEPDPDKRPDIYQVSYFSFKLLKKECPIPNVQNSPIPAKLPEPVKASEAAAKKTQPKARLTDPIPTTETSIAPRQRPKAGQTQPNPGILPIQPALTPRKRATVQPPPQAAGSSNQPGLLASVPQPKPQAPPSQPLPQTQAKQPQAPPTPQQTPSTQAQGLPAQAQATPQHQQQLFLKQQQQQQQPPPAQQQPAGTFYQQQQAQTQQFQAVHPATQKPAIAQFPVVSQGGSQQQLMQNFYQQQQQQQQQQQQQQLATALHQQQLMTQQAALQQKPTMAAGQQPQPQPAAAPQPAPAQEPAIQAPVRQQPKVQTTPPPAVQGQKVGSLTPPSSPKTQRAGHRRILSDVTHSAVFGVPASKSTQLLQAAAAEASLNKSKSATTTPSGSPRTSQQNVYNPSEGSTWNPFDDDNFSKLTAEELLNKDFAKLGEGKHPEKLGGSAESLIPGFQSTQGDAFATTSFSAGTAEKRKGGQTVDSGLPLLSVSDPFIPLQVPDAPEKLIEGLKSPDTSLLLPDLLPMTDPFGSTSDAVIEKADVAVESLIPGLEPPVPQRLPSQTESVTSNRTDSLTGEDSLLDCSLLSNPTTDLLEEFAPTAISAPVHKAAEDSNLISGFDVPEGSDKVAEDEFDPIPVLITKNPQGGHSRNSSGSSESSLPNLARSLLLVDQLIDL
# Chain of Mitogen-activated protein kinase 11 (Homo sapiens) (Q15759 whole entry, the tested form may be a part): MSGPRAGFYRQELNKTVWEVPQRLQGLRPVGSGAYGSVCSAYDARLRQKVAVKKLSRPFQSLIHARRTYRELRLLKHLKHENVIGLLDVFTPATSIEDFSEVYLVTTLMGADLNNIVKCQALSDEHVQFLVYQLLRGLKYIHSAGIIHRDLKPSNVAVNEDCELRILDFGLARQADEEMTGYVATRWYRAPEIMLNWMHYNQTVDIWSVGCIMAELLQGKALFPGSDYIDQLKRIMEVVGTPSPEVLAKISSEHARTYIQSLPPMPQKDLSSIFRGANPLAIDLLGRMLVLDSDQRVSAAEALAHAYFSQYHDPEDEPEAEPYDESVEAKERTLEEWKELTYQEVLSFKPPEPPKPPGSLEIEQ
compound,measurement,setting,value
O=C(Nc1cc(-c2cn(CCNc3c4c(nc5ccccc35)CCCC4)nn2)ccn1)Nc1cccc2c1C1CCCCN1C2=O (racemic),Activity,[1],77%
same,Activity,[2],2.5%
same,Activity,[3],70%
same,Activity,[4],51%
same,Activity,[5],97%
same,Activity,[6],0.5%
same,Activity,[7],1.6%
same,Activity,[8],78%
same,Activity,[9],1.3%
same,Activity,[10],19%
same,Activity,[11],100%
same,Activity,[12],90%
same,Activity,[13],3%
same,Activity,[14],8.5%
same,Activity,[15],9.2%
same,Activity,[16],74%
same,Activity,[17],94%
same,Activity,[18],12%
same,Activity,[19],13%
same,Activity,[20],100%
same,Activity,[21],11%
same,Activity,[22],0%
same,Activity,[23],100%
same,Activity,[24],67%
